B1: IFN-γ: human IFN-γ used on HUVECs, 200 ng/ml (protein)
chain: QDPYVKEAENLKKYFNAGHSDVADNGTLFLGILKNWKEESDRKIMQSQIVSFYFKLFKNFKDDQSIQKSVETIKEDMNVKFFNSNKKKRDDFEKLTNYSVTDLNVQRKAIHELIQVMAELSPAAKTGKRKRSQMLFRGRRASQ

Columns and labels:
[1] = tested on: B16BI6 tumor; assay: B16BI6 melanoma model, tumor growth; format: in vivo, mouse; details: Example 5, alone or combined with birinapant
Description: FIG. 2A is a graph showing the change in B16BI6 tumor size in B16 mice treated with PBS, CD8-targeted chimeric protein (CD8-Actaferon) alone, BcII10 targeted mutated murine TNF (Y114L) alone, or CD8-targeted chimeric protein (CD8-Actaferon) and BcII10 targeted mutated murine TNF (Y114L). FIG. 2B is a graph showing the change in B16BI6 tumor size in B16 mice treated with PBS, CD8-targeted chimeric protein (CD8-Actaferon) alone, CD13 targeted mutated murine TNF (Y114L) alone, or CD8-targeted chimeric protein (CD8-Actaferon) and CD13 targeted mutated murine TNF (Y114L). […] Tumor growth is shown as mean TSI+SEM (n=6 per group). The line under the graph represents the treatment period. […] Error bars are SEM. ***, p<0.001 by one-way ANOVA with Bonferroni's multiple comparison test. […]
FIG. 7A: Toxicity of wt sc mTNF and mutant Y86F after injection (T) in naïve C56BU6 mice. […] FIG. 7B: Plasma IL-6 concentrations measured via ELISA. […]
FIG. 8A and 8B: B16BI6 tumor growth after daily p.1. treatment with 7 μg mTNF, 30 μg hTNF alone or in combination with 10000 IU mIFN-γ in wt C57BL/6 mice (a) or homozygous Flk1 dnIFN-γR transgenic mice. […] FIG. 8C: IL-8 concentration in HUVEC supernatant after 24 h stimulation with the indicated concentration of sc hTNF mutant Y87F (Y87F), hCD13-AFR or wt hTNF, alone or in combination with 200 ng/ml hIFN-γ, measured via ELISA. […]

[2] = tested on: HUVEC; assay: IL-8 secretion by HUVECs (ELISA of supernatant); format: cell-based, human; details: 24 h stimulation, 200 ng/ml hIFN-γ where used
Protocol: FIG. 8A and 8B: B16BI6 tumor growth after daily p.1. treatment with 7 μg mTNF, 30 μg hTNF alone or in combination with 10000 IU mIFN-γ in wt C57BL/6 mice (a) or homozygous Flk1 dnIFN-γR transgenic mice. The line under the graph represents the treatment period. Tumor growth is depicted as mean TSI, error bars are SEM (n=5 per group). FIG. 8C: IL-8 concentration in HUVEC supernatant after 24 h stimulation with the indicated concentration of sc hTNF mutant Y87F (Y87F), hCD13-AFR or wt hTNF, alone or in combination with 200 ng/ml hIFN-γ, measured via ELISA. Error bars are SEM. ns, non-significant; p<0.01; ***, p<0.001 by one-way ANOVA with Bonferroni's multiple comparison test. FIG. 8D: Schematic representation of AFN-II, consisting of a VHH fused via a 20×GGS linker to an engineered IFN-γ (e-IFN-γ) variant and N-terminal affinity tag. FIG. 8E: Viability of B16BI6 parental or mCD20-expressing cells after 72 h stimulation with wt mIFN-γ or de18 mutant fused to a BcII10 or mCD20 VHH, in the presence of 60 ng/ml mTNF. Cell viability was measured via an ATP luminescence assay. Each point is the mean of three replicates and error bars are SEM.
It was also tested whether IFN-γ could sensitize HUVECs to TNF, using either wtTNF or hCD13-AFR.

Row | Molecule | Tumor growth (FIG. 5A) [1] | IL-8 secretion by HUVECs [2]
1 | CC[C@H](NC(=O)[C@H](C)NC)C(=O)N1C[C@@H](O)C[C@H]1Cc1c(-c2[nH]c3cc(F)ccc3c2C[C@@H]2C[C@H](O)CN2C(=O)[C@H](CC)NC(=O)[C@H](C)NC)[nH]c2cc(F)ccc12 [birinapant] | very little effect on tumor growth | –
2 | B1 | – | no effect on IL-8 secretion

Reference: patent US12544426B2, “Combination therapy with CD13-targeted chimeric proteins or chimeric protein complexes” (Orionis Biosciences, Inc., priority 2019, dated 2026)
